Measured values taken from PMC7395068, “The evolution of strategies to minimise the risk of human drug-induced liver injury (DILI) in drug discovery and development” (Archives of Toxicology, 2020).
Where two headings read alike, the source gives them in different places.

Key:
[1] = tested on: human hepatocytes; details: In vitro Assay; ref Xu 2008; cited from earlier work
[2] = ref Chen 2011, cited from earlier work
[3] = cited from earlier work; for DILI +VE (5-8), DILI -VE (-4) / DILI severity category: ref Chen 2016
[4] = tested on: PHH spheroids; details: In vitro Assay; ref Vorrink 2018; cited from earlier work
[5] = tested on: THLE or HepG2 cells, isolated mitochondria, BSEP; details: In vitro Assay; ref Aleo 2019; cited from earlier work
[6] = tested on: HepG2 cells; details: In vitro Assay; ref Persson 2013; cited from earlier work
[7] = tested on: hLiMTs; details: cited from earlier work; for hLiMTs ATP <100uM: In vitro Assay, ref Proctor 2017; for hLiMTs/100uM, Proctor (2017): IC50 threshold 100 µM
[8] = tested on: HepG2 cells; details: In vitro Assay; ref O'Brien 2006; cited from earlier work
[9] = tested on: HepG2 cells, primary human hepatocytes; details: In vitro Assay; ref Garside 2014; cited from earlier work
[10] = cited from earlier work
[11] = tested on: HepG2 cells; details: In vitro Assay; ref Tolosa 2012; cited from earlier work
[12] = tested on: HepG2 C3A spheroid, BSEP, Glu/Gal in HepG2 cells, bioactivation; details: cited from earlier work; for Bayesian Machine Learning: In vitro Assay, ref Williams 2019
[13] = tested on: PHH; details: cited from earlier work; for PHH ATP <100uM: In vitro Assay, ref Proctor 2017; for PHH/100uM, Proctor (2017): IC50 threshold 100 µM
[14] = tested on: THLE-Null and THLE-3A4 cells; details: In vitro Assay; ref Gustafsson 2014; cited from earlier work
[15] = tested on: isolated mouse liver mitochondria; details: In vitro Assay; ref Porceddu 2012; cited from earlier work
[16] = tested on: hLiMTs; assay: Combined HCI (HCS) and cellular ATP 3D assay in hLiMTs; details: for AC50 / minimal effective concentration: Homo sapiens
[17] = tested on: HepaRG spheroids; assay: Combined HCI (HCS) and cellular ATP 3D assay in HepaRG spheroids; details: for AC50 / minimal effective concentration: Homo sapiens
[18] = read-out: Human plasma Cmax; total plasma Cmax.tot, median of 9 literature references; cited from earlier work
[19] = hLiMTs, ATP, ref Proctor et al. 2017
[20] = 2D PHH, ATP, ref Proctor et al. 2017
[21] = Microtissue model structural based (HCI), combined HCS and ATP, MEC < 25 × Cmax.tot cut-off

Structure (SMILES) | Structural based (HCI) [1] | DILI +VE (5-8), DILI -VE (-4) [3] | DILI severity category [3] | hLiMTs ATP <20 x Cmax [4] | Cluser analysis [6] | Structural based (HCI) [6] | hLiMTs ATP <100uM [7] | Structural based (HCI) [8] | In vivo DILI ([10]; […]) | In vivo DILI ([10]; ref Proctor 2017) | In vivo DILI ([10]; ref Tolosa 2012) | In vivo DILI ([10]; ref Vorrink 2018) | In vivo DILI ([10]; ref Xu 2008) | Structural based (HCI) [11] | PHH ATP <100uM [13] | further results
Cc1cn([C@H]2C=C[C@@H](CO)O2)c(=O)[nH]c1=O [stavudine] | -VE | +VE | vMost-DILI-Concern | -VE | -VE | +VE | -VE | -VE | +VE | +VE | +VE | +VE | +VE | -VE | -VE | DILI Score (FDA) (1-8) [2]: 8; Partition Hybrid HRM Score [5]: -VE; Ro2 Hybrid HRM Score [5]: -VE; Cluster 1-6 +VE Assay [9]: -VE; In vivo DILI ([10]; ref Aleo 2019): +VE; In vivo DILI ([10]; ref Garside 2014): +VE; In vivo DILI ([10]; ref O'Brien 2006): +VE; In vivo DILI ([10]; ref Persson 2013): +VE; In vivo DILI ([10]; ref Williams 2019): +VE; Bayesian Machine Learning [12]: +VE
CCCCc1oc2ccccc2c1C(=O)c1cc(I)c(OCCN(CC)CC)c(I)c1 [amiodarone] |  |  |  |  | +VE | +VE | +VE (IC50 threshold of 100 µM) | +VE |  |  |  |  |  | +VE | +VE (IC50 threshold of 100 µM) | THLE-Null [14]: +VE; in vitro data EC20<=2uM [15]: +VE; hLiMTs/100uM, Proctor (2017) [7, 19]: +VE (IC50 threshold of 100 µM); AC50 ([16]; read-out: ATP endpoint AC50): 5.33 µM; minimal effective concentration ([16]; read-out: ATP endpoint MEC): 4.58 µM; AC50 ([16]; read-out: HCS endpoint AC50): 28.2 µM; minimal effective concentration ([16]; read-out: HCS endpoint MEC): 6.51 µM; hLiMTs <10 uM All ([16]; hLiMTs, all endpoints, cut-off <10 uM): +ve (<10 uM); HepaRG <10 uM All ([17]; HepaRG, all endpoints, cut-off <10 uM): +ve (<10 uM); AC50 ([17]; HepaRG, read-out: ATP endpoint AC50): 112 µM; minimal effective concentration ([17]; HepaRG, read-out: ATP endpoint MEC): 98.8 µM; AC50 ([17]; HepaRG, read-out: HCS endpoint AC50): 13.1 µM; minimal effective concentration ([17]; HepaRG, read-out: HCS endpoint MEC): 4.62 µM; PHH/100uM, Proctor (2017) [13, 20]: +VE (IC50 threshold of 100 µM)
O=C1NC(=O)C(c2ccccc2)(c2ccccc2)N1 [phenytoin] | +VE | +VE | vMost-DILI-Concern | -VE |  |  |  |  | +VE |  | +VE | +VE | +VE | +VE |  | DILI Score (FDA) (1-8) [2]: 3
C[C@H]1c2cccc(O)c2C(=O)C2=C(O)[C@]3(O)C(=O)C(C(N)=O)=C(O)[C@@H](N(C)C)[C@@H]3[C@@H](O)[C@@H]21 [doxycycline] |  |  |  |  |  |  |  |  |  |  | +VE |  |  | +VE |  | DILI Score (FDA) (1-8) ([2]; FDA drug labelling score, scale 1-8): 3; DILI +VE (5-8), DILI -VE (-4) ([3]; binary in vivo human DILI call): +VE; DILI severity category ([3]; human DILI, LTKB DILIrank category): vLess-DILI-Concern
CC(C)[N+](C)(CCOC(=O)C1c2ccccc2Oc2ccccc21)C(C)C [propantheline bromide] |  |  |  |  |  |  |  |  |  |  |  |  |  |  |  | DILI severity category (Chen et al. [2016]) ([3]; LTKB DILIrank category, ref Chen et al. 2016): No; DILI severity category (Chen 2016) ([3]; human DILI classification, LTKB DILIrank, ref Chen et al. 2016): No; hLiMTs/100xCmax, Proctor (2017) ([7]; hLiMTs, ATP, IC50 < 100 × Cmax.tot, ref Proctor et al. 2017): -VE; hLiMTs/100uM, Proctor (2017) [7, 19]: -VE; Cmax [18]: 440 nM; DILI prediction hLiMTs (HCS-MEC) [16, 21]: -VE; DILI prediction HepaRG spheroids (HCS-MEC) [17, 21]: -VE; Assigned DILI category ([10]; Chen et al. 2016 or literature alignment, ref Chen et al. 2016): 1; Bayesian Machine Learning DILI prediction, Williams (2019) ([12]; Bayesian modeling, ref Williams et al. 2019): -VE; PHH/100xCmax, Proctor (2017) ([13]; 2D PHH, ATP, IC50 < 100 × Cmax.tot, ref Proctor et al. 2017): -VE; PHH/100uM, Proctor (2017) [13, 20]: -VE
Cc1ccccc1C(OCCN(C)C)c1ccccc1 (stereo not drawn) [orphenadrine] | -VE | -VE | vNo-DILI-Concern | -VE |  |  | -VE |  | -VE | -VE | +VE | -VE | -VE | +VE | -VE | In vivo DILI ([10]; ref Williams 2019): -VE; Bayesian Machine Learning [12]: -VE
CN(C)CCC=C1c2ccccc2CCc2ccccc21 [amitriptyline] | -VE | +VE | vLess-DILI-Concern |  | +VE | +VE | +VE (IC50 threshold of 100 µM) | -VE | +VE | +VE | +VE |  | -VE | +VE | +VE (IC50 threshold of 100 µM) | Cluster 1-6 +VE Assay [9]: +VE; In vivo DILI ([10]; ref Garside 2014): +VE; In vivo DILI ([10]; ref O'Brien 2006): +VE; In vivo DILI ([10]; ref Persson 2013): +VE
